Experimental findings from ChEMBL document CHEMBL1201862, “PubChem BioAssay data set” (2004) are described below.

Activity calls are given as the source filed them. Some results are limits rather than exact numbers.

Assay [1] addresses Potassium voltage-gated channel subfamily KQT member 2 (Rattus norvegicus, UniProt O88943). The experiment in a line: blockers of KCNQ2 channel current – cell-based, automated electrophysiology, set II, rat KCNQ2, dose response (AID 588637). The format is functional.
Assay [2] concerns the target T1, Zinc finger protein mex-5 (Caenorhabditis elegans, UniProt Q9XUB2).
T1 sequence (Q9XUB2 whole entry): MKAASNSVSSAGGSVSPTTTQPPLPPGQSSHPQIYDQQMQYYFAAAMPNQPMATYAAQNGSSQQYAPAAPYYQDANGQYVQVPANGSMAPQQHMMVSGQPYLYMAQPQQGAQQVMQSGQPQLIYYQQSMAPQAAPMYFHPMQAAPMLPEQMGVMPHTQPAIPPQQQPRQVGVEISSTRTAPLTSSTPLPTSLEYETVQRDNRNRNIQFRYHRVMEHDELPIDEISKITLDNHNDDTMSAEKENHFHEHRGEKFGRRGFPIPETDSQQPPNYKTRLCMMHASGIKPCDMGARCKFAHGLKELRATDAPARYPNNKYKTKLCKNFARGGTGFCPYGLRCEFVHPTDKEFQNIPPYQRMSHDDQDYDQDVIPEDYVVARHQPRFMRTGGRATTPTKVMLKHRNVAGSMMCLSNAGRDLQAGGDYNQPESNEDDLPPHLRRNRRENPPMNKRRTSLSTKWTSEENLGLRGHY
The assay can be described thus: potency of MEX-5 RNA-binding blockers – biochemical, C. elegans, fluorescence polarization, dose response (AID 1960).

Assay [3] concerns the target Dual specificity tyrosine-phosphorylation-regulated kinase 1A (Rattus norvegicus, UniProt Q63470). The format is biochemical, Homo sapiens.
The target of assay [4] is T2, Mitochondrial peptide methionine sulfoxide reductase (Bos taurus, UniProt P54149).
T2 sequence (P54149 whole entry): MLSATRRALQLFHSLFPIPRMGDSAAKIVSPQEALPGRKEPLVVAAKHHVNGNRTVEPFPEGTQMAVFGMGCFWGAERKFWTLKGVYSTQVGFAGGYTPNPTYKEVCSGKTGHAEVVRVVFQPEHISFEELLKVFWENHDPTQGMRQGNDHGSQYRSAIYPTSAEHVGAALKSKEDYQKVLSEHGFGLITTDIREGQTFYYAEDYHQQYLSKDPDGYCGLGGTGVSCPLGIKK
The experiment in a line: Absorbance-based biochemical high throughput dose response assay for activators of Methionine sulfoxide reductase A (MsrA). The format is functional.

In assay [5] the target is T3, RNA-binding protein pos-1 (Caenorhabditis elegans, UniProt G5EF15).
T3 sequence (G5EF15 whole entry): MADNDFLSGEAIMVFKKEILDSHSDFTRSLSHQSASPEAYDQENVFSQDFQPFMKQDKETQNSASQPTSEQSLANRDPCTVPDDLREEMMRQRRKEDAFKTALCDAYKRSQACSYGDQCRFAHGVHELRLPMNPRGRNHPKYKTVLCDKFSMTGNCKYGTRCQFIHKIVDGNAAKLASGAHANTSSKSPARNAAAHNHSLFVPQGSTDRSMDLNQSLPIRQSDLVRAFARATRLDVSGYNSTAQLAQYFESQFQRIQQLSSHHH
The assay can be described thus: disruptors of C. elegans POS-1 RNA interaction – biochemical, fluorescence polarization, dose response (AID 1964).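 Further: purified POS-1 fused to maltose binding protein made in E. coli; potency of compounds blocking POS-1 binding to fluorescent RNA.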 Background: Polarisation of emitted light reports the rotation of a fluorescent probe.

Assay [6] concerns the target Dual specificity protein phosphatase 3 (Homo sapiens, UniProt P51452). The experiment in a line: VHR phosphatase inhibition, dose response, selectivity assay for STEP inhibitor project, biochemical (AID 602374). The format is functional. The following applies: read-out: IC50_Mean.
Assay [7] deals with Tyrosine-protein phosphatase non-receptor type 5 (Homo sapiens, UniProt P54829). The assay can be described thus: PTPN5 enzyme inhibition – biochemical, fluorescence intensity, uHTS hits, confirmation (AID 602372). The class given is functional. Particulars: read-out: IC50_Mean.
Tyrosine-protein phosphatase non-receptor type 5, sequence (P54829 whole entry): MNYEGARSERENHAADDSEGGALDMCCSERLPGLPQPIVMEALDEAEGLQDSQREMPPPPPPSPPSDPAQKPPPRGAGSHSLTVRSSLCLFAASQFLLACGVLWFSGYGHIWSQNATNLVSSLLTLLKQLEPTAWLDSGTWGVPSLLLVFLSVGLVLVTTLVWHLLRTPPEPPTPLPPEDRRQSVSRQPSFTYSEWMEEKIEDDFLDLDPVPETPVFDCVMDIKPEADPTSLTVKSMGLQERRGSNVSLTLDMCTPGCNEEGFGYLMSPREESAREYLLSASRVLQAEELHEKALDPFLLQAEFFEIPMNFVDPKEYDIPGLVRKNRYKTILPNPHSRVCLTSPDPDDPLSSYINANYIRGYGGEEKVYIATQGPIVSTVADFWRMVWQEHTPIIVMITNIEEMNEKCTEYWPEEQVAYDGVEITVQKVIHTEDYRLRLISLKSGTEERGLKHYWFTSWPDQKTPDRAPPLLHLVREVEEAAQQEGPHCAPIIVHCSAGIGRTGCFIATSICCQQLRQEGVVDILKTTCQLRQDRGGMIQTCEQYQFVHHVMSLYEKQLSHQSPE
In assay [8] the target is Tyrosine-protein phosphatase non-receptor type 11 (Homo sapiens, UniProt Q06124). The assay can be described thus: PTPN11 enzyme inhibitors – biochemical, selectivity assay for STEP inhibitor project, dose response (AID 602367). Particulars: read-out: IC50_Mean. The class given is functional.
Tyrosine-protein phosphatase non-receptor type 11, sequence (Q06124 whole entry, the tested form may be a part): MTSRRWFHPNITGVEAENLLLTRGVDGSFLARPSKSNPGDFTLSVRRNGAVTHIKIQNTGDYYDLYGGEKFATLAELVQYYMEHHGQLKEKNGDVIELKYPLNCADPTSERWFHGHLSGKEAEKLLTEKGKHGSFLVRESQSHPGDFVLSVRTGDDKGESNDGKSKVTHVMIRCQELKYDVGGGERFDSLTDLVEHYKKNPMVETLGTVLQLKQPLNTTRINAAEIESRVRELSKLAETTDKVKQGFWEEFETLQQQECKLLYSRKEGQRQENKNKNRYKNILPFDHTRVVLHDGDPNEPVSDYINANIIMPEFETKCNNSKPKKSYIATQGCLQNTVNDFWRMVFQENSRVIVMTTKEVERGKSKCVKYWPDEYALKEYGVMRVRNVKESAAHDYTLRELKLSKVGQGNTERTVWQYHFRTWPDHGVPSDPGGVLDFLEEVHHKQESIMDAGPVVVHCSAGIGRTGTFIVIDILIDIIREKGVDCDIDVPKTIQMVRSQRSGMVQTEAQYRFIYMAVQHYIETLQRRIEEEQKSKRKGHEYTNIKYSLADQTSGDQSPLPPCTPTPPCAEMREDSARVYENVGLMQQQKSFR
Assay [9] can be described thus: inhibition of ARNT PAS-B/TACC3 complex formation – biochemical, AlphaScreen, cherry-picked samples, confirmation (AID 651703).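 Further: His-tagged ARNT PAS-B domain paired with GST-TACC3 E629A dimer coactivator fragment; potency of inhibitors that break up the complex and lower AlphaScreen signal.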 The class given is functional, Homo sapiens. In general terms: In Alpha technology, singlet oxygen from a donor bead excites a nearby acceptor bead.
For assay [10], the target named is T4, Rac GTPase-activating protein 1 (Homo sapiens, UniProt Q9H0H5).
T4 sequence (Q9H0H5 whole entry): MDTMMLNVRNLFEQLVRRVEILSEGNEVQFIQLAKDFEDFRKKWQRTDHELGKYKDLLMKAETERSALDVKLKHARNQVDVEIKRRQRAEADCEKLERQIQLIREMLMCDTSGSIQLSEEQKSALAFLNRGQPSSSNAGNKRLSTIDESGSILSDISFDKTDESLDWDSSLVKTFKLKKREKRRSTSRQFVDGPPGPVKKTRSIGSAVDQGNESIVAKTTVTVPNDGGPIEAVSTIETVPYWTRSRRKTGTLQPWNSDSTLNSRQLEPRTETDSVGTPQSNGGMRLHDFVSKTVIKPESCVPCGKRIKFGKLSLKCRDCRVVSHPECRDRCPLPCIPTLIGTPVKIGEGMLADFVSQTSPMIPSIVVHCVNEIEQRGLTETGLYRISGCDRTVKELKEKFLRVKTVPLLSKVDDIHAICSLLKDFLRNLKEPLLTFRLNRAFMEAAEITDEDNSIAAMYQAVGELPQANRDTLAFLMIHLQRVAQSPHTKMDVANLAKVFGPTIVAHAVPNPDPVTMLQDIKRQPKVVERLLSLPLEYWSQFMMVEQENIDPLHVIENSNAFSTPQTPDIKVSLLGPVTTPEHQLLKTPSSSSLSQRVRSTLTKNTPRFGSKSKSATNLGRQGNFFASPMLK
The experiment in a line: blockers of MgcRacGAP-driven Rac1 GTP hydrolysis – biochemical, ADP Hunter fluorescence, primary and confirmatory, confirmation (AID 624330). The class given is functional.

Assay [11] deals with Cyclin-dependent kinase 19 (Homo sapiens, UniProt Q9BWU1). The assay can be described thus: Navigating the Kinome. Panel member name: CDC2L6. The format is functional.
Cyclin-dependent kinase 19, sequence (Q9BWU1 whole entry): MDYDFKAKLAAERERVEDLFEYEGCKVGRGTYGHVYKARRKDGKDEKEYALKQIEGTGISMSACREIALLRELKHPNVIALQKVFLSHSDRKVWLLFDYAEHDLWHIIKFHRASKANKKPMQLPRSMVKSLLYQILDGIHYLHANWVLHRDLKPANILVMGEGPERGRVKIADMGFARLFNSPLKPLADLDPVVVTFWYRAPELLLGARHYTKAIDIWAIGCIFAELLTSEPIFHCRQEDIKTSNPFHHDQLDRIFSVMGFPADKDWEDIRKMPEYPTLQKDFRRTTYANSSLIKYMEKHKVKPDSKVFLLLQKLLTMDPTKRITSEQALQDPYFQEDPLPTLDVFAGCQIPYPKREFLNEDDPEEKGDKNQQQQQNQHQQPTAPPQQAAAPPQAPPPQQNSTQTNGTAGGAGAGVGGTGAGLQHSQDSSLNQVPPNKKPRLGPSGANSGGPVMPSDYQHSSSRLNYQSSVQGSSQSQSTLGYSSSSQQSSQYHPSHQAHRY
A further assay concerns the target T5, Aurora kinase A (Homo sapiens, UniProt O14965).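 Further: value from the Navigating the Kinome kinase panel profiling, panel entry STK6.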
T5 sequence (O14965 whole entry): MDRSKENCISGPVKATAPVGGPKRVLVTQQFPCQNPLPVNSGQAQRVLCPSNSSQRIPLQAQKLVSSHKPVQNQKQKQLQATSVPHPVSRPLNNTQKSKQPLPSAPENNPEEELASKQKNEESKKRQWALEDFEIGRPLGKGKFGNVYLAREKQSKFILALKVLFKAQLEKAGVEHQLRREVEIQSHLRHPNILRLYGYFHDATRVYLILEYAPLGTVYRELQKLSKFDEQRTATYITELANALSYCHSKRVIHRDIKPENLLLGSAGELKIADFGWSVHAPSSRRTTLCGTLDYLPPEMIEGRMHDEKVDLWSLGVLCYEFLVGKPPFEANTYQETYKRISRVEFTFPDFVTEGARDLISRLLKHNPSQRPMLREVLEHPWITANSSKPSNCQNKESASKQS
The class given is functional.

Assay [12] deals with Tyrosine-protein kinase BTK (Homo sapiens, UniProt Q06187). The class given is functional.
Assay [13] addresses Tyrosine-protein kinase Lck (Homo sapiens, UniProt P06239). The format is functional.
Assay [14] has as its target T6, Serine/threonine-protein kinase TAO1 (Homo sapiens, UniProt Q7L7X3).
T6 sequence (Q7L7X3 whole entry): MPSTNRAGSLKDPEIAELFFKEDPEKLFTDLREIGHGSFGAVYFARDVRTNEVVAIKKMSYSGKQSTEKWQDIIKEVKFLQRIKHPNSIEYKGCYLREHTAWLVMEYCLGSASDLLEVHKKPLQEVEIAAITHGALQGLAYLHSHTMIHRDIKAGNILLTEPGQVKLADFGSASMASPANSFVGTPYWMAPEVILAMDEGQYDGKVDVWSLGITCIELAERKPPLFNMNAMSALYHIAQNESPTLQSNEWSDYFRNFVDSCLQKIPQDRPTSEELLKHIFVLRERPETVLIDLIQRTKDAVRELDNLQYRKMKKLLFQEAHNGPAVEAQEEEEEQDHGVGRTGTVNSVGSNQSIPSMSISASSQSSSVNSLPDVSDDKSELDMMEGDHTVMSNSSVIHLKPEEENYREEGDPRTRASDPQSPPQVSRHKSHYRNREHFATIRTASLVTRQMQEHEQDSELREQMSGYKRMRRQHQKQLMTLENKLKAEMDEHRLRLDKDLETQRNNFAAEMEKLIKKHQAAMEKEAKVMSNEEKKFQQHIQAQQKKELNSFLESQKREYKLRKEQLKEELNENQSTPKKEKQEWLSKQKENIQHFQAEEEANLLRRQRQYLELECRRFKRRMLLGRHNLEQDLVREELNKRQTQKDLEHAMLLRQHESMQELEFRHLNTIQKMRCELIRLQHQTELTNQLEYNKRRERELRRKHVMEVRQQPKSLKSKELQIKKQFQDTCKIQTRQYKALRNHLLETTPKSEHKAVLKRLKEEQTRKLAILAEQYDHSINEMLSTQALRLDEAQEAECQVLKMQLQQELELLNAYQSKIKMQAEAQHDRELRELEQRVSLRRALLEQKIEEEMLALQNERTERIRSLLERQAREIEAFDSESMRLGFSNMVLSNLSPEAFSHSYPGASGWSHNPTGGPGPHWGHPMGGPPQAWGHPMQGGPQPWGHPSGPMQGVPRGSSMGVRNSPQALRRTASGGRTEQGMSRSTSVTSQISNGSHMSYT
The format is functional.

Assay [15] deals with Serine/threonine-protein kinase pim-1 (Homo sapiens, UniProt P11309). The format is functional.
Assay [16] concerns the target Tyrosine-protein kinase Fyn (Homo sapiens, UniProt P06241). The class given is functional.
Assay [17] concerns the target Dual specificity protein kinase CLK4 (Homo sapiens, UniProt Q9HAZ1). The class given is functional.
For assay [18], the target named is ALK tyrosine kinase receptor (Homo sapiens, UniProt Q9UM73). The format is functional.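 Further: ALK tested as one member of a kinase panel screen.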
ALK tyrosine kinase receptor, sequence (Q9UM73 whole entry): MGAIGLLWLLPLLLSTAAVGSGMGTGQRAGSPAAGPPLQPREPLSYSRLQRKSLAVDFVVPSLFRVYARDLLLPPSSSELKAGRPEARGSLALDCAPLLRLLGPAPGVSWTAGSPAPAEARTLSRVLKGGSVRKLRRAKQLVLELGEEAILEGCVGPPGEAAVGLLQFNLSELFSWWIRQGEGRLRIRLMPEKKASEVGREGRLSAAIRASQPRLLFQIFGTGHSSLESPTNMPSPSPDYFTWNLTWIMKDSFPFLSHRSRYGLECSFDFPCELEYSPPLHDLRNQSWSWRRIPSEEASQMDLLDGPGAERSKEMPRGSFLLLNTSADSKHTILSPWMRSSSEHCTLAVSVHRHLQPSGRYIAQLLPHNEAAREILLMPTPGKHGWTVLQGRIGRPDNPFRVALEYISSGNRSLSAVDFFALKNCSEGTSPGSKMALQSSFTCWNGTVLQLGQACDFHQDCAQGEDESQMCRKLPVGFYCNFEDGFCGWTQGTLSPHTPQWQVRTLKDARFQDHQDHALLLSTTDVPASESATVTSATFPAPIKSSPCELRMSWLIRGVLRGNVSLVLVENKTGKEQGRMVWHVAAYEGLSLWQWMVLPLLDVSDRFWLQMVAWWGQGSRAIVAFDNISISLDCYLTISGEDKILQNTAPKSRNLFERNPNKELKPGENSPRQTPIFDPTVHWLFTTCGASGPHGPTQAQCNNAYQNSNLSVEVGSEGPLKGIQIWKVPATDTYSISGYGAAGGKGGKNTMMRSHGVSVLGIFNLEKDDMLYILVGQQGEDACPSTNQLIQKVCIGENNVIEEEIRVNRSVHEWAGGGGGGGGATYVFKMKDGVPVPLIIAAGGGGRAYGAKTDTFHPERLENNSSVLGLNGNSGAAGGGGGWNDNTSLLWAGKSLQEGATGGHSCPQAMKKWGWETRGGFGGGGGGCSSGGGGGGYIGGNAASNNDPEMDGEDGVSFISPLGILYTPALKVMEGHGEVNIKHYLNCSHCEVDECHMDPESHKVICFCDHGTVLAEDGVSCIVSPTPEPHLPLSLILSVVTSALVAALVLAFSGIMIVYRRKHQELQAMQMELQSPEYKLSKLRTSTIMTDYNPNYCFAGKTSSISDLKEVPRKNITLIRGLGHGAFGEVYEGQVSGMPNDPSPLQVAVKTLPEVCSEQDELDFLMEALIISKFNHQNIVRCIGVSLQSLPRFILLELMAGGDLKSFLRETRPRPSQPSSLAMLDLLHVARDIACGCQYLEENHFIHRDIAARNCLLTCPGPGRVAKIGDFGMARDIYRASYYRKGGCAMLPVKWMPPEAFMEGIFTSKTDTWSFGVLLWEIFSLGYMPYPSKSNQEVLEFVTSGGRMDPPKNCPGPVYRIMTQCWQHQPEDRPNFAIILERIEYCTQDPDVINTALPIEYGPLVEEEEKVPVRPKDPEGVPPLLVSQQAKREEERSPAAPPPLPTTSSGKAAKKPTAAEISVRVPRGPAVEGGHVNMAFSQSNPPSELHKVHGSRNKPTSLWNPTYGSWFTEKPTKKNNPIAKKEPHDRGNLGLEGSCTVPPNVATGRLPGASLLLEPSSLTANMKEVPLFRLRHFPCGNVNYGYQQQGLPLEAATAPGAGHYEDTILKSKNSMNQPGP
Assay [19] has as its target BDNF/NT-3 growth factors receptor (Homo sapiens, UniProt Q16620). The format is functional.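 Further: NTRK2 measured as one member of a broad kinome-wide kinase profiling panel.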

Potassium voltage-gated channel subfamily KQT member 2, sequence (O88943 whole entry): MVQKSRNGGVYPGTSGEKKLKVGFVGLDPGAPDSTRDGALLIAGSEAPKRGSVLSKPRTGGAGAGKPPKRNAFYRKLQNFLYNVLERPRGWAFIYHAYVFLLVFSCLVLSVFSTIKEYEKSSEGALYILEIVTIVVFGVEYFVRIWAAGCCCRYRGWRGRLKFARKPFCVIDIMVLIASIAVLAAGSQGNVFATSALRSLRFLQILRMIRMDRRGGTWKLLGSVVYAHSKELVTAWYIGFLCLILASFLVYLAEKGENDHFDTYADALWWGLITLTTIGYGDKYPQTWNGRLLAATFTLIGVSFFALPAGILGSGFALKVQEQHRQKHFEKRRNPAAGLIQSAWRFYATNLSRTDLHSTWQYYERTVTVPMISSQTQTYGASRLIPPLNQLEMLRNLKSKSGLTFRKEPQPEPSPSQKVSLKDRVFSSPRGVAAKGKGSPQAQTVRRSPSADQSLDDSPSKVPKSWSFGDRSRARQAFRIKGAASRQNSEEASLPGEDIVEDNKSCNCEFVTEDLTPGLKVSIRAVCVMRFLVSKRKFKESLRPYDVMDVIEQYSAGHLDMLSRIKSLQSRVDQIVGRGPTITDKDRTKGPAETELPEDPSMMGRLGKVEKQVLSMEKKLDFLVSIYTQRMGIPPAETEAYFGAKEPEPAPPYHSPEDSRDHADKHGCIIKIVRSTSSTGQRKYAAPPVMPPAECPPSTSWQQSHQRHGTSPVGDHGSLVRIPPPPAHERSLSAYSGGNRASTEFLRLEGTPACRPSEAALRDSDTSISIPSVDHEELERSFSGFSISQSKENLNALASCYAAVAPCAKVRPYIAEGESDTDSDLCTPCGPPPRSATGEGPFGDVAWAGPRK
Tyrosine-protein kinase Lck, sequence (P06239 whole entry): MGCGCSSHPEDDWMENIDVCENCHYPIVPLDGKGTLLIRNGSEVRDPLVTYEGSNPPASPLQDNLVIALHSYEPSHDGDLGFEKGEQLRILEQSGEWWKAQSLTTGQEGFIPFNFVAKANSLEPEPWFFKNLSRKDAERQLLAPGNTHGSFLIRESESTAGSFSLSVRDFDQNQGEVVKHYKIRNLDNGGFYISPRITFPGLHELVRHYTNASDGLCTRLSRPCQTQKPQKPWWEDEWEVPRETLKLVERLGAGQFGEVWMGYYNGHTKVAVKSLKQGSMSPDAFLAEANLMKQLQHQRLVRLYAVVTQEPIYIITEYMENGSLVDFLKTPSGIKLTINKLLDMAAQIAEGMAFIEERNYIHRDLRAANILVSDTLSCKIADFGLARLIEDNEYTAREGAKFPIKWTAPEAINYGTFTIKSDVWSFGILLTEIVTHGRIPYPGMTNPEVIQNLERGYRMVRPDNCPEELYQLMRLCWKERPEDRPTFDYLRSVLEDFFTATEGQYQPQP
Dual specificity protein phosphatase 3, sequence (P51452 whole entry): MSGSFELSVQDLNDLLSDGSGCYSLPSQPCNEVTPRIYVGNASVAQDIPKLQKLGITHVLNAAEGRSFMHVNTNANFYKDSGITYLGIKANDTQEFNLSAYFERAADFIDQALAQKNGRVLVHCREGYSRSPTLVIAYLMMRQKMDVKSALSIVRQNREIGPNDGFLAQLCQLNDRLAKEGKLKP

Consider `COc1ccc(Nc2ccccc2NC(=O)c2ccccc2Br)cc1`, for which, in assay [1], the IC50 is 4.81 µM (active).
With `Cc1ccc2c(C)c(C(=O)N3CCN(c4ncccn4)CC3)oc2c1C`, in [1], the IC50 was 4.2 µM (active).
For orientation: EC50 means the concentration that produces a half-maximal response. As usually defined, the AC50 is the midpoint of the concentration-response curve, whichever way the signal moves. In the case of `O=C1c2ccccc2C(=O)c2[nH]cnc21`, the EC50 in assay [2] is 85.6 µM (active); in [4], > 104 µM (inactive); in [5], > 300 µM (not active). In addition, the AC50 in assay [3] is 7.57 µM (active).
Turning to `CCOC(=O)c1c(NC(=O)OC)sc(C(=O)N(CC)CC)c1C`, the IC50 in assay [6] is 1.56 µM (active); in assay [7], 28.4 µM (inactive); in assay [8] it was 4.3 µM (active).
For `FC(F)(F)c1cnc(-c2cnc(-c3ccccn3)nc2)c(Cl)c1`, the AC50 in assay [9] is 75.3 µM (active).
As for `Nc1nc(=S)ss1`, the IC50 in assay [10] is 301 µM (active). The EC50 in [4] was 10.3 µM (inactive).
A word on the Ki: it is the dissociation constant of the complex between target and ligand, obtained from inhibition or displacement. `Cc1ccc(NC(=O)Nc2ccc(-c3c(Cc4cccnc4)sc4ncnc(N)c34)cc2)cc1`: the Ki is > 100 µM (inactive) in assay [11] and 0.0631 µM (active) at Aurora kinase A.
For `O=C(Nc1ccccc1N1CCCC1)c1ccc2ccccc2n1`, the Ki in assay [12] was > 6.31 µM (inactive); in [13], > 6.31 µM (inactive); in [14], > 6.31 µM (inactive); in assay [15], > 6.31 µM (inactive); in [16] it was > 6.31 µM (inactive); in assay [17], 1.26 µM (active). The Ki in assay [18] is > 6.31 µM (inactive); in assay [19], 0.631 µM (active).
